Each structure is given as a SMILES string. Read-outs that look alike come from different tables or passages of the source.

The subject of one assay is MEK. As to the kind of experiment: Western blot, feedback activation of MEK. Type of assay: cell-based. Conditions: melanoma cells, FIG. 5. As to the method:
(§1) A375 melanoma cells (BRAF^V600E mutant) were purchased from the American Type Culture Collection (Manassas, Va.) and grown in RPMI or DMEM, in the presence of fetal bovine serum (10%), 2 mM L-glutamine and antibiotics (100 IU/ml penicillin and […] streptomycin) purchased from Sigma Aldrich. Cells were maintained at 37° C., 5% CO2 atmosphere.
(§2) Cells, treated with compound for 24 hr, were lysed in RIPA buffer (CST, Danvers, Mass., USA) on ice and clarified by centrifugation. Equal amounts of proteins were resolved by SDS-PAGE and immunoblotted with indicated antibodies. The antigen-antibody complex was visualized and quantitated using an Odyssey system (LI-COR, Lincoln, Nebr., USA).

A further assay concerns AKT and ERK. Nature of the assay: Western blot of signaling pathways, AKT and ERK activity. It counts as cell-based. Conditions: A375 melanoma cells. As to the method:
as §1, §2

Assay [1] concerns androgen receptor, AKT, PARP. As to the kind of experiment: Western blot in LNCaP cells: androgen receptor, AKT, PARP cleavage. It counts as cell-based. Conditions: FIG. 2.
From the text: as §2

For the next assay, the system named is 4EBP1. Nature of the assay: Western blot, 4EBP1 dephosphorylation. Type of assay: cell-based. The note with it: A375 melanoma cells. As to the method:
as §1, §2
Background: A western blot detects proteins with antibodies after separation by electrophoresis.

Another assay deals with B-raf. The note with it: cited from earlier work.
The subject of assay [2] is androgen receptor (AR), Akt. Nature of the assay: Everolimus-induced AR expression and Akt activity, apoptosis (FIG. 1). It counts as cell-based. The note with it: in combination with everolimus.
From the text: as §2

With `Cn1c(=O)n(-c2ccc(C(C)(C)C#N)cc2)c2c3cc(-c4cnc5ccccc5c4)ccc3ncc21` [BEZ235, 2-methyl-2-[4-[3-methyl-2-oxo-8-(quinolin-3-yl)-2,3-dihydroimidazo[4,5-c]quinolin-1-yl]phenyl]propionitrile], in the assay with MEK, the “feedback activation of MEK” value is on record as “feedback activation of MEK observed”. Also, the “AKT and ERK activity” value in the assay on AKT and ERK was “enhanced the activity of AKT and ERK”. For the same molecule, the Akt deactivation entry in assay [1] was “able to deactivate Akt”. Moreover, the “dephosphorylation of 4EBP1” value in the assay with 4EBP1 was “sufficient to dephosphorylate 4EBP1”.

In the case of `C=CCNC1=C2C[C@@H](C)C[C@H](OC)[C@H](O)[C@@H](C)/C=C(\C)[C@H](OC(N)=O)[C@@H](OC)/C=C\C=C(/C)C(=O)NC(=CC1=O)C2=O` [Compound 17AAG], the B-raf degradation entry is “B-raf was degraded more rapidly than in CHL cells” with B-raf (A375 (V600E) versus CHL cells (wild type B-raf)); “not sensitive to degradation” in the assay on B-raf (B-raf mutants E586K and L597V); “degraded more rapidly than wild type B-raf” in the assay with B-raf (B-raf mutants V600D, G469A, G469E, G596R, G466V, G594V in COS cells).

`CC(C)c1cc(-c2nnc(O)n2-c2ccc3c(ccn3C)c2)c(O)cc1O` [ganetespib, 3-(2,4-DIHYDROXY-5- ISOPROPYL-PHENYL)-4-(1- METHYL-INDOL-5-YL)-5- HYDROXY-[1,2,4] TRIAZOLE]: the “AKT and ERK activity” value in the assay on AKT and ERK is “effective in disrupting AKT and ERK activity”. In addition, the “Inhibition of AKT” value with AKT and ERK (Western blot, FIG. 4) is listed as “blocked by lower concentrations of ganetespib compared to BEZ-235”. In assay [2], the apoptosis result is reported as “increased apoptosis”; the “everolimus-induced AR expression and Akt activity” value was “sufficient in blocking everolimus-induced AR expression and Akt activity”. The “dephosphorylation of 4EBP1” value in the assay with 4EBP1 is on record as “could not completely dephosphorylate 4EBP1”.

The values above are taken from patent US20140315943A1, “COMBINATION THERAPY OF HSP90 INHIBITORY COMPOUNDS WITH MTOR/P13K INHIBITORS” (SYNTA PHARMACEUTICALS CORP., priority 2011, published 2014).
